Reference: patent publication US10407409B2, “6-(5-hydroxy-1H-pyrazol-1-yl)nicotinamide inhibitors of PHD” (Takeda Pharmaceutical Company Limited, priority 2013, dated 2019)

How the values were obtained:
[1] = system: HIF1a protein in H9c2 rat cardiomyocytes; assay: Cell-based HIF-alpha stabilization assay (inhibition of PHD in cells); conditions: 24 hrs compound incubation, HIF1a protein by ELISA; for EC50: Rattus norvegicus, H9c2, 24 h, read-out: Inhibition of PHD in cells (pEC50) (converted)
Summary of the method: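 Rat H9c2 cardiomyocytes, cultured 24 h, were treated 24 h with an 11-point serial dilution of compound. HIF1a in whole-cell lysates was quantified by ELISA as % of the maximal desferrioxamine response. EC50 came from curve fitting; EC50pos is the concentration reaching 50% of the desferrioxamine maximum.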

[2] = target: PHD2 enzyme (residues 181-417) (Homo sapiens (Human), UniProt Q9GZT9); assay: Inhibition of PHD enzyme (LC/MS peptide hydroxylation assay); assay type: biochemical; conditions: PHD2 (residues 181-417) 5 nM, 60 min pre-incubation; -log(IC50), IC50 molar
Summary of the method: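 PHD2 (5 nM final) preincubated with inhibitor 60 min at RT in 50 mM HEPES, 50 mM KCl, 0.5 mM TCEP, 2 uM FeCl2, 0.1 mg/ml BSA, pH 7.3. Reaction started with biotin-peptide (1 uM), 2-oxoglutarate (2 uM), ascorbate (1 mM), quenched at 60 min; hydroxylated product by LC/MS, reported as pIC50.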

Chain of PHD2 enzyme (residues 181-417) (Q9GZT9 181-417): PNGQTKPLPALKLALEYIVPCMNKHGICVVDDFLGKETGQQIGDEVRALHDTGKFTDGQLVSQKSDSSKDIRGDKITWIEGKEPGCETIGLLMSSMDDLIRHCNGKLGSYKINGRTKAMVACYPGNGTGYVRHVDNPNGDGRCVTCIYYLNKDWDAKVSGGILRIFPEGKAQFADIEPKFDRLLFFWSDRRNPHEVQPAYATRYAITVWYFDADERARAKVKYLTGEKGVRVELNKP

Structure (SMILES)	PHD Inhibition (pIC50) [2]	EC50 [1]	Inhibition of PHD in cells (pEC50) [1]
N#Cc1ccc(-c2cnn(-c3ccc(C(=O)NC4CCC(F)(F)CC4)cn3)c2O)cc1 [Example 84, 6-(4-(4-cyanophenyl)-5-hydroxy-1H-pyrazol-1-yl)-N-(4,4-difluorocyclohexyl)nicotinamide]	6.91	2240 nM	–
COCCCN(C)C(=O)c1ccc(-n2ncc(-c3ccc(C#N)cc3)c2O)nc1 [Example 234, 6-(4-(4-cyanophenyl)-5-hydroxy-1H-pyrazol-1-yl)-N-(3-methoxypropyl)-N-methylnicotinamide]	7.12	2240 nM	–
COC(C)(C)CNC(=O)c1ccc(-n2ncc(-c3ccc(C#N)cc3)c2O)nc1 [Example 55, 6-(4-(4-cyanophenyl)-5-hydroxy-1H-pyrazol-1-yl)-N-(2-methoxy-2-methylpropyl)nicotinamide]	7.2	1860 nM	–
COCC1(CNC(=O)c2ccc(-n3ncc(-c4ccc(C#N)cc4C)c3O)nc2)CCCC1 [Example 143, 6-(4-(4-cyano-2-methylphenyl)-5-hydroxy-1H-pyrazol-1-yl)-N-((1-(methoxymethyl)cyclopentyl)methyl)nicotinamide]	7.9	891 nM	–
CCN1CCC(NC(=O)c2ccc(-n3ncc(-c4ccc(C#N)cc4C)c3O)nc2)CC1 [Example 98, 6-(4-(4-cyano-2-methylphenyl)-5-hydroxy-1H-pyrazol-1-yl)-N-(1-ethylpiperidin-4-yl)nicotinamide]	7.9	120 nM	–
Cc1cc(C#N)ccc1-c1cnn(-c2ccc(C(=O)NCCC3CCCN3C)cn2)c1O (stereo not shown) [Example 102, 6-(4-(4-cyano-2-methylphenyl)-5-hydroxy-1H-pyrazol-1-yl)-N-(2-(1-methylpyrrolidin-2-yl)ethyl)nicotinamide]	7.9	58.9 nM	–
C[C@H]1CC[C@H](NC(=O)c2ccc(-n3ncc(-c4ccc(C#N)cc4)c3O)nc2)CC1 [Example 144, 6-(4-(4-cyanophenyl)-5-hydroxy-1H-pyrazol-1-yl)-N-((1r,4r)-4-methylcyclohexyl)nicotinamide]	8.1	1700 nM	–
COCCC(C)(C)NC(=O)c1ccc(-n2ncc(-c3ccc(C#N)cc3C)c2O)nc1 [Example 67, 6-(4-(4-cyano-2-methylphenyl)-5-hydroxy-1H-pyrazol-1-yl)-N-(4-methoxy-2-methylbutan-2-yl)nicotinamide]	7.11	219 nM	–
N#Cc1ccc(-c2cnn(-c3ccc(C(=O)NCCCn4cccn4)cn3)c2O)cc1 [Example 117, N-(3-(1H-pyrazol-1-yl)propyl)-6-(4-(4-cyanophenyl)-5-hydroxy-1H-pyrazol-1-yl)nicotinamide]	7.44	646 nM	–
Cc1cc(C#N)ccc1-c1cnn(-c2ccc(C(=O)NCCCN3CCOCC3)cn2)c1O [Example 104, 6-(4-(4-cyano-2-methylphenyl)-5-hydroxy-1H-pyrazol-1-yl)-N-(3-morpholinopropyl)nicotinamide]	8.2	95.5 nM	–
COc1cc(-c2cnn(-c3ccc(C(=O)NCC4CCOCC4)cn3)c2O)ccc1C#N [Example 253, 6-(4-(4-cyano-3-methoxyphenyl)-5-hydroxy-1H-pyrazol-1-yl)-N-((tetrahydro-2H-pyran-4-yl)methyl)nicotinamide]	8.3	5620 nM	–
Cc1cc(C#N)ccc1-c1cnn(-c2ccc(C(=O)NCCCCO)cn2)c1O [Example 130, 6-(4-(4-cyano-2-methylphenyl)-5-hydroxy-1H-pyrazol-1-yl)-N-(4-hydroxybutyl)nicotinamide]	7.27	417 nM	–
COc1cc(-c2cnn(-c3ccc(C(=O)NC4(C)CC4)cn3)c2O)ccn1 [Example 4, 6-(5-hydroxy-4-(2-methoxypyridin-4-yl)-1H-pyrazol-1-yl)-N-(1-methylcyclopropyl)nicotinamide]	6.92	525 nM	–
COc1cc(-c2cnn(-c3ccc(C(=O)NCC(C)C)cn3)c2O)ccn1 [Example 6, 6-(5-hydroxy-4-(2-methoxypyridin-4-yl)-1H-pyrazol-1-yl)-N-isobutylnicotinamide]	7.02	955 nM	–
COc1cc(-c2cnn(-c3ccc(C(=O)NCC4CCOCC4)cn3)c2O)c(F)cn1 [Example 254, 6-(4-(5-fluoro-2-methoxypyridin-4-yl)-5-hydroxy-1H-pyrazol-1-yl)-N-((tetrahydro-2H-pyran-4-yl)methyl)nicotinamide]	8	2750 nM	–
COc1cc(-c2cnn(-c3ccc(C(=O)NCCCN4CCOCC4)cn3)c2O)ccn1 [Example 32, 6-(5-hydroxy-4-(2-methoxypyridin-4-yl)-1H-pyrazol-1-yl)-N-(3-morpholinopropyl)nicotinamide]	7.8	813 nM	–
CO[C@H]1CC[C@@H](NC(=O)c2ccc(-n3ncc(-c4ccc(C#N)cc4C)c3O)nc2)CC1 [Example 119, 6-(4-(4-cyano-2-methylphenyl)-5-hydroxy-1H-pyrazol-1-yl)-N-((1 s,4s)-4-methoxycyclohexyl)nicotinamide]	7.11	126 nM	–
Cc1cc(C#N)ccc1-c1cnn(-c2ccc(C(=O)N[C@H]3CCOC3)cn2)c1O [Example 120, (S)-6-(4-(4-cyano-2-methylphenyl)-5-hydroxy-1H-pyrazol-1-yl)-N-(tetrahydrofuran-3-yl)nicotinamide]	7.2	102 nM	–
Cn1ccc(-c2cnn(-c3ccc(C(=O)NCC4CCOCC4)cn3)c2O)cc1=O [Example 211, 6-(5-hydroxy-4-(1-methyl-2-oxo-1,2-dihydropyridin-4-yl)-1H-pyrazol-1-yl)-N-((tetrahydro-2H-pyran-4-yl)methyl)nicotinamide]	6.47	50100 nM	–

Now from value to compound, other results behind:

PHD Inhibition (pIC50) [2]	Structure (SMILES)	EC50 [1]	Inhibition of PHD in cells (pEC50) [1]
8.02	Cc1cc(C#N)ccc1-c1cnn(-c2ccc(C(=O)N(C)C3CN(C)C3)cn2)c1O [Example 432, 6-(4-(4-cyano-2-methylphenyl)-5-hydroxy-1H-pyrazol-1-yl)-N-methyl-N-(1-methylazetidin-3-yl)nicotinamide]	741 nM	–
7.94	Cc1cc(C#N)ccc1-c1cnn(-c2ccc(C(=O)N3CCC[C@H](N4CCCC4)C3)cn2)c1O [Example 381, (S)-4-(5-hydroxy-1-(5-(3-(pyrrolidin-1-yl)piperidine-1-carbonyl)pyridin-2-yl)-1H-pyrazol-4-yl)-3-methylbenzonitrile]	1070 nM	–
7.05	Cc1cc(-n2ncc(-c3ccc(C#N)cc3)c2O)ncc1C(=O)N[C@H]1CC[C@@H](O)CC1 [Example 278, 6-(4-(4-cyanophenyl)-5-hydroxy-1H-pyrazol-1-yl)-N-((1s,4s)-4-hydroxycyclohexyl)-4-methylnicotinamide]	3240 nM	–
7.88	Cc1cc(C#N)ccc1-c1cnn(-c2ccc(C(=O)N(C)CCCN3CCCCC3)cn2)c1O [Example 303, 6-(4-(4-cyano-2-methylphenyl)-5-hydroxy-1H-pyrazol-1-yl)-N-methyl-N-(3-(piperidin-1-yl)propyl)nicotinamide]	282 nM	–
8.39	Cc1c(-c2cnn(-c3ccc(C(=O)N4CCN(C)[C@H](C)C4)cn3)c2O)ccc(C#N)c1F [Example 340, (R)-4-(1-(5-(3,4-dimethylpiperazine-1-carbonyl)pyridin-2-yl)-5-hydroxy-1H-pyrazol-4-yl)-2-fluoro-3-methylbenzonitrile]	759 nM	–
8.54	Cc1c(-c2cnn(-c3ccc(C(=O)N4CCN(C)C5(CC5)C4)cn3)c2O)ccc(C#N)c1F [Example 324, 2-fluoro-4-(5-hydroxy-1-(5-(4-methyl-4,7-diazaspiro[2.5]octane-7-carbonyl)pyridin-2-yl)-1H-pyrazol-4-yl)-3-methylbenzonitrile]	832 nM	–
7.87	Cc1cc(C#N)ccc1-c1cnn(-c2ccc(C(=O)N3CC[C@@H]4CN(C)C[C@@H]4C3)cn2)c1O [Example 417, 4-(5-hydroxy-1-(5-((3aR,7aS)-2-methyloctahydro-1H-pyrrolo[3,4-c]pyridine-5-carbonyl)pyridin-2-yl)-1H-pyrazol-4-yl)-3-methylbenzonitrile]	575 nM	–
7.22	N#Cc1ccc(-c2cnn(-c3ccc(C(=O)NCC4(F)CCCCC4)cn3)c2O)cc1 [Example 263, 6-(4-(4-cyanophenyl)-5-hydroxy-1H-pyrazol-1-yl)-N-((1-fluorocyclohexyl)methyl)nicotinamide]	1230 nM	–
7.17	CC(NC(=O)c1ccc(-n2ncc(-c3ccc(C#N)cc3)c2O)nc1)C1CC1 (stereo in doubt) [Example 260, (S)-6-(4-(4-cyanophenyl)-5-hydroxy-1H-pyrazol-1-yl)-N-(1-cyclopropylethyl)nicotinamide]	–	6.23
8.53	Cc1c(-c2cnn(-c3ccc(C(=O)N4CCC[C@@H](N(C)CC(F)F)C4)cn3)c2O)ccc(C#N)c1F [Example 336, (R)-4-(1-(5-(3-((2,2-difluoroethyl)(methyl)amino)piperidine-1-carbonyl)pyridin-2-yl)-5-hydroxy-1H-pyrazol-4-yl)-2-fluoro-3-methylbenzonitrile]	977 nM	–
